Reference: article PMC7481761 (Virologica Sinica, 2020)
Read-outs that look alike come from different tables or passages of the source. Marks after values point to notes of the source that are not given here.

Key:
[1] = test system: Huh7 cells; details: CCK-8 assay
[2] = test system: SARS-CoV-2; test: microbe, parasite or virus in culture; format: cell-based; details: for IC50: Severe acute respiratory syndrome coronavirus 2, Huh-7, 48 h
[3] = test system: SARS-CoV-2; test: Time-of-drug-addition assay in Vero E6 cells; format: cell-based
[4] = test system: SARS-CoV-2; format: cell-based
[5] = test system: Vero E6 cells; details: read-out: CC50 (half cytotoxic concentration)
[6] = test system: SARS-CoV-2; format: cell-based; remark: listed apart in the source
[7] = in vitro; details: African green monkey
[8] = In vivo plasma exposure in humans; parameters: species or system human
[9] = plasma; ref Cvetkovic and Goa (2003); cited from earlier work
[10] = in vitro; details: human
[11] = test system: SARS-CoV-2; format: cell-based; details: Vero E6 cells, CC50/IC50

| SMILES | CC50 [1] [µM] | IC50 [2] [µM] | stage of infection at which the compound acts (time-of-drug-addition) [3] | inhibitory effect by IFA [4] | CC50 [5] [µM] | NP expression by IFA [6] | CC50 [7] [µM] | In vivo concentration Unbound Cmin [8] [µmol/L] | In vivo concentration Cmin [9] | CC50 [10] [µM] | selectivity index (SI) ([2]; Huh7 cells, CC50/IC50) | selectivity index (SI) [11] |
| --- | --- | --- | --- | --- | --- | --- | --- | --- | --- | --- | --- | --- |
| C#CC[C@@H](C(=O)N[C@H](/C=C/C(=O)OCC)C[C@@H]1CCNC1=O)n1cccc(NC(=O)c2cc(C)on2)c1=O [AG7404] | > 400 | 92.5 | inhibit SARS-CoV-2 at the stages post virus infection | confirmed by IFA | > 400 | confirmed by IFA |  |  |  |  |  |  |
| Cc1cccc(C)c1OCC(=O)N[C@@H](Cc1ccccc1)[C@@H](O)C[C@H](Cc1ccccc1)NC(=O)[C@H](C(C)C)N1CCCNC1=O [Lopinavir, lopinavir] | 64.4 | 7.79 | inhibited SARS-CoV-2 infection after virus entry, but not during virus entry | IFA confirmed the inhibitory effect |  | decreased NP expression levels | 80.8 |  |  |  |  |  |
| CC(C)c1nc(CN(C)C(=O)N[C@H](C(=O)N[C@@H](Cc2ccccc2)C[C@H](O)[C@H](Cc2ccccc2)NC(=O)OCc2cncs2)C(C)C)cs1 [Ritonavir, ritonavir] |  | 11.7 | inhibited SARS-CoV-2 infection after virus entry, but not during virus entry | IFA confirmed the inhibitory effect |  | decreased NP expression levels |  | 0.0006 | 0.038^e µmol/L |  |  |  |
| CCOC(=O)/C=C/[C@H](C[C@@H]1CCNC1=O)NC(=O)[C@@H](CC(=O)[C@@H](NC(=O)c1cc(C)on1)C(C)C)Cc1ccc(F)cc1 [Rupintrivir, rupintrivir] |  | 25.4 | inhibit SARS-CoV-2 at the stages post virus infection | confirmed by IFA |  | confirmed by IFA | > 100 |  |  | > 100 | > 3.94 | > 2.93 |
